We go through eleven molecules from patent publication US11384060B2, “Amide compounds and use thereof” (ALPHALA CO., LTD., priority 2017, dated 2022).

In assay [1] the target is T1, glucagon receptor (GCGR) (Homo sapiens, UniProt P47871).
T1 construct: expressed in transfected cells; host or cells: CHO-K1 cells overexpressing GCGR (membrane fractions)
The assay can be described thus: I125-glucagon binding assay (competition, GCGR membrane fractions). The conditions noted are these: competition with I125-glucagon 0.0625 nM, membrane fractions of GCGR overexpressed CHO-K1 cells. Summed up: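 Competition of 0.0625 nM (final) I^125-glucagon for 30 min at 25° C, after 5 min compound preincubation, using 7.5 μg/well GCGR-overexpressing CHO-K1 membranes in 50 mM Tris pH 7.4, 0.5% BSA. Filtration onto PEI-coated GF/B, micro-beta counting, and non-linear regression gave IC50.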

Assay [2] addresses T2, glucagon receptor (GCGR) overexpressed CHO-K1 cells or human primary hepatocytes (Homo sapiens, UniProt P47871).
T2 construct: expressed in transfected cells; host or cells: GCGR overexpressed CHO-K1 cells or human primary hepatocytes (endogenous receptor)
The assay is described as follows: Glucagon cAMP inhibition assay (Cisbio cAMP Dynamic 2 HTRF). It counts as cell-based. The following applies: inhibition of glucagon (EC50 concentration) induced cAMP production. Summed up:
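HTRF read-out of glucagon-induced cAMP, with IC50 from non-linear regression. Cells (GCGR CHO-K1 or human primary hepatocytes) in HBSS/0.1% BSA/800 nM IBMX took compound dilutions for 30 min (final DMSO 1%), then EC50-level glucagon for 30 min at room temperature, then a 60 min lysis/detection step.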
Background: TR-FRET usually uses a lanthanide donor and a delayed reading to cut background.

SMILES strings stand for the structures. pIC50: −log10 of the molar value.

T1 sequence (P47871 26-477): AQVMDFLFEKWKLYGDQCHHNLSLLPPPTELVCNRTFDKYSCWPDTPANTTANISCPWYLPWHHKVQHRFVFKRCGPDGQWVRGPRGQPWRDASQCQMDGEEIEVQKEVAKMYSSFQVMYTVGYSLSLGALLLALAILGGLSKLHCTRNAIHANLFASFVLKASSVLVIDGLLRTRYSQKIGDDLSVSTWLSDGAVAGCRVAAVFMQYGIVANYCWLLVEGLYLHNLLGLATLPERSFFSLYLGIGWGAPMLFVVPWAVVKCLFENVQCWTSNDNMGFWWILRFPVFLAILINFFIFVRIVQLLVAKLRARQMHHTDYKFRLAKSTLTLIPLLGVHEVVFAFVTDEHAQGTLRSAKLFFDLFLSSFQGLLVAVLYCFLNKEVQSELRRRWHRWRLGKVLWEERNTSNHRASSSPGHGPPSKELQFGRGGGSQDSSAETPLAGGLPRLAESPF
T2 sequence (P47871 26-477): as above

On to `CC(C)[C@@H](COc1ccc(-c2cc3ccccc3o2)cc1)Nc1ccc(C(=O)NCCC(=O)O)cn1` [Compound 4-2, (S)-3-(6-((1-(4-(benzofuran-2-yl)phenoxy)-3-methylbutan-2-yl)amino)nicotinamido)propanoic Acid], for which the pIC50 (as a rule, the negative decadic logarithm of the IC50, by convention in mol/L) in assay [1] was 7.05. Moreover, the “IC50 cAMP” value in assay [2] is reported as 121.3 nM.
In the same order, the values of `CC[C@H](C)[C@@H](COc1ccc(-c2ccc(Cl)cc2Cl)cc1)Nc1ccc(C(=O)NCCC(=O)O)cn1` [Compound 4-3, 3-(6-(((2S,3S)-1-((2′,4′-dichloro-[1,1′-biphenyl]-4-yl)oxy)-3-methylpentan-2-yl)amino)nicotinamido)propanoic Acid] are 6.21 and 414 nM.
`CC[C@H](C)[C@@H](COc1ccc(-c2nnc(C(C)(C)C)o2)cc1)Nc1ccc(C(=O)NCCC(=O)O)cn1` [Compound 4-4, 3-(6-(((2S,3S)-1-(4-(5-(tert-butyl)-1,3,4-oxadiazol-2-yl)phenoxy)-3-methylpentan-2-yl)amino)nicotinamido)propanoic Acid]: in assay [1], the pIC50 was 5.62. In addition, the “IC50 cAMP” value in assay [2] is given as more than 30000 nM.
In assay [1], `CC[C@H](C)[C@@H](COc1ccc(-c2nnc(-c3ccccc3)o2)cc1)Nc1ccc(C(=O)NCCC(=O)O)cn1` [Compound 4-5, 3-(6-(((2S,3S)-3-methyl-1-(4-(5-phenyl-1,3,4-oxadiazol-2-yl)phenoxy)pentan-2-yl)amino)nicotinamido)propanoic Acid] had a negative-log IC50 (pIC50) of 6.15. The “IC50 cAMP” value in assay [2] is reported as 11200 nM.
On the same counts, the results for `CC(C)[C@@H](CSc1ccc(-c2cc3ccccc3o2)cc1)Nc1ccc(C(=O)NCCC(=O)O)cc1` [Compound 5-1, (S)-3-(4-((1-((4-(benzofuran-2-yl)phenyl)thio)-3-methylbutan-2-yl)amino)benzamido)propanoic Acid] are 5.69 and 14405 nM.
As for `CC[C@H](C)[C@@H](CSc1ccc(-c2ccc(C(F)(F)F)cc2)cc1)Nc1ccc(C(=O)NCCC(=O)O)cc1` [Compound 5-2, 3-(4-(((2S,3S)-3-methyl-1-((4′-(trifluoromethyl)-[1,1′-biphenyl]-4-yl)thio)pentan-2-yl)amino)benzamido)propanoic Acid], the pIC50 in assay [1] was 5.92. Further, the “IC50 cAMP” value in assay [2] was 2465 nM.
On the same counts, the results for `CC[C@H](C)[C@@H](CSc1ccc(-c2cc3ccccc3o2)cc1)Nc1ccc(C(=O)NCCC(=O)O)cc1` [Compound 5-3, 3-(4-(((2S,3S)-1-((4-(benzofuran-2-yl)phenyl)thio)-3-methylpentan-2-yl)amino)benzamido)propanoic Acid] are 6.40 and 946.9 nM.
In the same order, the values of `CC(C)[C@@H](COc1ccc(-c2cc3ccccc3o2)cc1)N(C)c1ccc(C(=O)NCCC(=O)O)cc1` [Compound 6-1, (S)-3-(4-((1-(4-(benzofuran-2-yl)phenoxy)-3-methylbutan-2-yl)(methyl)amino)benzamido)propanoic Acid] are 6.41 and 204.2 nM.
Take `CCN(c1ccc(C(=O)NCCC(=O)O)cc1)[C@H](COc1ccc(-c2cc3ccccc3o2)cc1)C(C)C` [Compound 6-2, (S)-3-(4-((1-(4-(benzofuran-2-yl)phenoxy)-3-methylbutan-2-yl)(ethyl)amino)benzamido)propanoic Acid]: in assay [1], the negative-log IC50 (pIC50) was 6.19. The “IC50 cAMP” value in assay [2] stood at 164.3 nM.
In the same order, the values of `CCOC[C@@H](COc1ccc(-c2cc3ccccc3o2)cc1)Nc1ccc(C(=O)NCCC(=O)O)cc1` [Compound 6-3, (S)-3-(4-((1-(4-(benzofuran-2-yl)phenoxy)-3-ethoxypropan-2-yl)amino)benzamido)propanoic Acid] are 6.32 and 3859 nM.
The molecule `CC(C)[C@@H](COc1cc(F)c(-c2cc3ccccc3o2)c(F)c1)Nc1ccc(C(=O)NCCC(=O)O)cc1` [Compound 7-1, (S)-3-(4-((1-(4-(benzofuran-2-yl)-3,5-difluorophenoxy)-3-methylbutan-2-yl)amino)benzamido)propanoic Acid] had a pIC50 in assay [1] of 7.03. For the same molecule, the “IC50 cAMP” value in assay [2] turned out to be 495 nM.
